Test results from patent publication US5654321A, “2-chloro-3-arylamino-1,4-naphthoquinone derivatives, process for preparation thereof and use thereof as an agent for inhibiting platelet aggregation” (Dong Kook Pharmaceutical Co. Ltd., priority 1996, dated 1997).
pIC50: −log10 of the molar value. “Also recorded” adds a separate entry of the source. Read-outs that look alike come from different tables or passages of the source. One block for each compound: values may come before it.

Tests used:
[1] = tested on: washed platelet; test: Inhibition of platelet aggregation induced by platelet agonists (aggregometer, light transmission, method of Born); type: cell-based, rat; details: for pIC50: washed platelet, 37° C., read-out: concentration by which the platelet aggregation induced by agonists is reduced by 50%
Method: Blood was taken from abdominal aorta of rat using a syringe in which sodium citrate (final content 0.38%) was previously filled, and centrifuged under 160×g at room temperature for 15 minutes to obtain the platelet rich plasma as the supernatant. This platelet rich plasma was centrifuged again under 1500×g for 15 minutes to obtain the precipitate which was then washed three times with a washing buffer solution (129 mM sodium chloride, 0.8 mM dipotassium hydrogenphosphate, 8.9 mM sodium carbonate, 2.8 mM potassium chloride, 0.8 mM magnesium chloride, 5.6 mM glucose, 10 mM N-[2-hydroxyethyl]-piperazine-N'-[2-ethanesulfonic acid], acidity pH 7.4) containing 2 mM ethylenediamine tetraacetic acid to remove protein and calcium from the plasma. This […] was then carefully re-suspended in a modified Tyrode's buffer solution (129 mM sodium chloride, 0.8 mM dipotassium hydrogenphosphate, 8.9 mM sodium carbonate, 2.8 mM potassium chloride, 0.8 mM magnesium chloride, 5.6 mM glucose, 10 mM N-[2-hydroxyethyl]piperazine-N-'-[2-ethanesulfonic acid], acidity pH 7.4) containing 0.35% bovine serum albumin to obtain the washed platelet.
In this experiment, the platelet aggregation ability was determined by measuring a change in light transmission depending on turbidity change by means of an apparatus for measuring platelet aggregation ability (Chronolog Co.: Pennsylvania, Harvertown) according to a method of Born (see, Born, G. V. R., Nature, 194, 927, 1962). As the control, the light transmission degree for the plasma having substantially no platelet was used. 495 μl of the platelet rich plasma prepared in the above (1) was added to a cuvette for aggregometer, which has a silicon-treated surface. This cuvette was pre-treated by inserting it into a cuvette channel which is maintained at 37° C. and retaining for 30 seconds. Then, 2.5 μl of the compound according to the present invention, NQ-Y15 (final concentration 10^-4 M), dissolved in dimethylsulfoxide was added to the cuvette. The reaction was conducted again at 37° C. for 8 minutes. Then, the change in light transmission developed by adding 2.5 μl of thrombin (final concentration 0.5U/ml) thereto was measured for 10 minutes.
In addition, 495 μl of the washed platelet prepared in the above (1) was pre-treated for 30 seconds at 37° C. according to the same procedure as above and then 2.5 μl of the compound according to the present invention, NQ-Y15, dissolved in dimethylsulfoxide was added thereto. This mixture was allowed to react for 8 minutes at 37° C. Then, 2.5 μl of the platelet agonist (thrombin 0.1U/ml, collagen 10 μg/ml or calcium ionophore A23187 having the following formula 2 μM) was added to the reaction mixture to induce the platelet aggregation and then the change in light transmission was measured for 10 minutes. In this experiment, the light transmission degree for Tyrode's buffer solution was used as the control. [drawing 7]
The result was determined by calculating the relative ratio of the light transmission degree obtained in each case to the light transmission degree obtained from treatment only with platelet agonists, which is regarded as 100% aggregation.

[2] = tested on: [14C]-serotonin-loaded platelet (washed platelet); test: Inhibition of 5-[14C]-serotonin secretion from agonist-activated platelets; type: cell-based, rat
Text: Contrary to other cells, platelets contain numerous granules such as dense granule, α-granule, lysosome and peroxisome, each of which preserves very useful physiological substances. When platelet is activated by any stimulus, substances contained in granules are secreted out of the cells through exocytosis. Particularly, dense granule contains adenine nucleotides such as adenosine diphosphate (ADP), adenosine triphosphate (ATP), etc, calcium, serotonin, etc., which are secreted upon aggregation of platelets and then cause irreversible secondary aggregation. Thus, it can be said that irreversible secondary aggregation induced by ADP, thrombin, etc. is the result of such granule secretion. […]
The inhibitory activity of the compound of the present invention against serotonin secretion was determined using [^14 C]-serotonin-loaded platelet according to the method of Huzoor, et. al. (see, Huzoor-Akbar, Patel, S., Kokrady, S., Witiak, D. T., Newman, H. A. I. and Feller, D. R., Biochem. Pharmacol. 30, 2013-2020, 1981). […] This mixture was then centrifuged under 12,000×g at room temperature for 2 minutes to separate the supernatant from which the radioactivity of 5-[^14 C]-serotonin was measured.

[3] = tested on: washed platelet (thromboxane B2 synthesis); test: Inhibition of thromboxane A2 production (thromboxane B2 by radioimmunoassay) in collagen-activated platelets; type: cell-based, rat; details: for Thromboxane B2: DMSO + collagen 98.44 ± 11.52, DMSO + saline 0.82 ± 0.22
Method: The ability of producing thromboxane A2 was determined as follow according to the method described in literature [see, Ko, F. N., Sheu, S. J., Liu, Y. M., Huang, T. F., and Teng, C. M., Inhibition of rabbit platelet aggregation by 1,4-naphthoquinones, Thromb. Res. 57, 453-463, 1990]. The experiment was conducted in a plastic cuvette containing 0.5 ml of the washed platelet (3×10^8 platelet/ml) while maintaining the temperature at 37° C. First, the washed platelet was pre-treated with the compound of the present invention, NQ-Y15, for 8 minutes and then collagen was added thereto. After incubation for 5 minutes, the reaction was allowed to stop by adding 2 mM ethylenediamine tetraacetic acid and 50 μM indomethacin. This mixture was centrifuged under 12,000×g at room temperature for 2 minutes to separate the supernatant which was then stored at -20° C. Since thromboxane A2 has a unstable structure and therefore, is immediately converted into a stable thromboxane B2, the production of thromboxane B2 as an index for the thromboxane A2 production was measured by radioimmunoassay.

[4] = tested on: washed platelet; test: Excretion of lactic acid dehydrogenase (LDH) from platelets, cytotoxicity; type: cell-based, rat; details: for Concentration of LDH: NQ-Y15 0.1 mM, Triton X-100 0.1%
Text: Lactic acid dehydrogenase (LDH) is an enzyme present in cytoplasm of platelets and is excreted from platelet cytoplasm into extracellular fluid when platelet membrane is injured or cytotoxicity such as cytolysis is induced. Accordingly, it was intended to identify whether the compound of the present invention induces the cytotoxicity by quantitatively measuring lactic acid dehydrogenase excreted after the pre-treatment with the compound of the present invention.
To the washed platelet, dimethylsulfoxide(DMSO) (control group) which can dissolve the compound, NQ-Y15, of the present invention, NQ-Y15 or Triton X-100 (0.1%) which can disrupt the cellular membrane was added. Then, this mixture was centrifuged under 12,000×g at room temperature for 2 minutes to separate the supernatant. To the separated supernatant was added a reagent for measuring lactic acid dehydrogenase LD-L10^R (Sigma) and then the excreted lactic acid dehydrogenase was quantitatively analyzed by means of an automated clinical chemistry analyzer SBA300 (Gilford) which can automatically quantitate lactic acid dehydrogenase.

[5] = tested on: rabbit platelet; details: Ko et al., Thromb. Res. 57, 453-463, 1990; cited from earlier work
[6] = tested on: human platelet; details: Blackwell et al., Thromb. Res. 37, 103-114, 1985; cited from earlier work

- pIC50 ([1]; Rattus norvegicus, Platelet, A23187 2 μM, 8 min pre-treatment (FIG. 3)): ~4.00
- pIC50 ([1]; Rattus norvegicus, Platelet, collagen 10 μg/ml, 8 min pre-treatment (FIG. 2)): ~5.15
- pIC50 ([1]; Rattus norvegicus, Platelet, thrombin 0.1U/ml, 8 min pre-treatment (FIG. 1)): ~4.42
Compound: N#Cc1ccc(NC2=C(Cl)C(=O)c3ccccc3C2=O)cc1 [NQ-Y15, 2-chloro-3-[(4-cyanophenyl)-amino]-1,4-naphthoquinone]
- IC100 ([1]; Rattus norvegicus, Platelet, agonist not stated, read-out: concentration to completely inhibit the platelet aggregation): 100 µM
- inhibition of platelet aggregation induced by platelet agonists (in words) ([1]; thrombin, collagen and A23187, FIGS. 1 to 3): inhibits the platelet aggregation induced by platelet agonists dependent upon its concentration
- inhibition of serotonin secretion increased by collagen (in words) ([2]; collagen, within concentration range inhibiting platelet aggregation (FIG. 5)): inhibits the serotonin secretion
- inhibition of serotonin secretion increased by thrombin (in words) ([2]; thrombin, within concentration range inhibiting platelet aggregation (FIG. 4)): inhibits the serotonin secretion increased by thrombin
- Thromboxane B2 ([3]; NQ-Y15 10 μM + collagen): 78.33 ± 11.85 ng/mL
- Thromboxane B2 ([3]; NQ-Y15 30 μM + collagen): 15.30 ± 2.84 ng/mL
- Thromboxane B2 ([3]; NQ-Y15 50 μM + collagen): 8.50 ± 1.81 ng/mL
- inhibition at 30 µM ([3]; Rattus norvegicus, Platelet, 30 μM, read-out: inhibitory effect on the increase in thromboxane A2 production induced by collagen): 15.5%
- inhibition at 50 µM ([3]; Rattus norvegicus, Platelet, 50 μM, read-out: inhibitory effect on the increase in thromboxane A2 production induced by collagen): 86.3%
- Concentration of LDH ([4]; 0 min, DMSO 6.13 ± 1.13): 2.87 ± 0.12 U/L
- LDH excretion versus control group / cytotoxicity (in words) ([4]; 0.1 mM, pre-treated for 120 minutes): does not show any significant difference from the control group; also recorded: does not cause a cytotoxicity even at high concentration
- Concentration of LDH ([4]; 10 min, DMSO 5.73 ± 2.54): 4.57 ± 1.05 U/L
- Concentration of LDH ([4]; 20 min, DMSO 8.25 ± 1.85): 5.47 ± 0.52 U/L
- Concentration of LDH ([4]; 40 min, DMSO 9.77 ± 1.37): 8.47 ± 0.43 U/L
- Concentration of LDH ([4]; 80 min, DMSO 12.20 ± 1.74): 11.55 ± 0.05 U/L
- Concentration of LDH ([4]; 120 min, DMSO 14.83 ± 1.39): 16.67 ± 1.24 U/L

Compound: Triton X-100 [reference compound]
- Concentration of LDH ([4]; 0 min, DMSO 6.13 ± 1.13): 426.40 ± 9.64 U/L
- Concentration of LDH ([4]; 10 min, DMSO 5.73 ± 2.54): 443.07 ± 1.27 U/L
- Concentration of LDH ([4]; 20 min, DMSO 8.25 ± 1.85): 444.93 ± 4.97 U/L
- Concentration of LDH ([4]; 40 min, DMSO 9.77 ± 1.37): 442.20 ± 0.87 U/L
- Concentration of LDH ([4]; 80 min, DMSO 12.20 ± 1.74): 443.73 ± 0.37 U/L
- Concentration of LDH ([4]; 120 min, DMSO 14.83 ± 1.39): 443.30 ± 2.53 U/L

Compound: CC1=C(Cl)C(=O)c2ccccc2C1=O [2-chloro-3-methyl-1,4-naphthoquinone]
- inhibition of platelet aggregation in rabbit (in words) [5]: inhibits the platelet aggregation in rabbit

Compound: CC1=CC(=O)c2ccccc2C1=O [vitamin K3, menadione]
- inhibition of platelet aggregation in human being (in words) [6]: has an effect on inhibition of platelet aggregation in human being
